Converted amounts (≈) assume the structure as drawn. Read-outs that look alike come from different tables or passages of the source.
Assays:
Type in all cases: cell-based
[1] = system: S. aureus clinical isolates; assay: microbe, parasite or virus in culture; settings: Staphylococcus aureus, read-out: MIC
[2] = system: S. aureus VISA ATCC 700699 GyrB R144I and GyrB I175T; assay: Second-step frequency-of-resistance assay in GyrB single mutants
Experimental: To determine the spontaneous frequency-of-resistance, approximately 10^10 cells from stationary-phase MHBII broth cultures of S. aureus ATCC 700699 and S. aureus ATCC 43300 were plated to antibiotic-containing plates according to a standard protocol to determine frequency-of-resistance. Prior to plating, bacteria were grown overnight in MHBII medium at 37 °C, 250 rpm, collected by centrifugation, and washed once in equal volumes of MHBII broth. From this concentrated cell suspension (250 μL), approximately 10^10 cells were then plated to each MHBII agarose plates. Using agarose instead of agar reduced drug-adsorption and improved the performance of the assay. […] All experiments were performed in at least 3 replicates. Plates were grown at 37 °C for 72 hours. Total CFUs were determined simultaneously in each experiment by plating appropriate dilutions to antibiotic-free MHBII agar plates. Finally, resistance frequencies for each strain were calculated by dividing the number of colonies formed after a 72-hour incubation at 37 °C by the initial viable cell count.

[3] = system: novobiocin-resistant S. aureus VISA ATCC 700699 mutants; assay: MIC against novobiocin-resistant (novobiocin-adapted) strains; settings: for MIC: Staphylococcus aureus
Experimental: MICs were determined using a standard serial broth microdilution technique according to the CLSI guidelines. Briefly, bacterial strains were inoculated onto MHBII agar plates and were grown overnight at 37 °C. Next, 3 individual colonies from each strain were inoculated into 1 mL MHBII medium and propagated at 37 °C, 250 rpm overnight. In the cases of Enterococcus and Streptococcus sp., cells were plated to BHI agar plates, and BHI broth was used to determine MICs. […] Following dilutions, each well was seeded with 5×10^4 bacterial cells. All measurements were performed in 3 parallel replicates and to avoid possible edge effects in microwell plates, side rows (A and H) were filled with sterile medium. Following inoculations, plates were covered with lids and wrapped in polyethylene plastic bags to minimize evaporation but allow for O2 transfer. Plates were incubated at 37 °C under continuous shaking at 150 rpm for 18 hours. After incubation, OD600 of each well was measured using a BioTek Synergy 2 microplate reader.

Q: How did the MIC ([1]; MRSA, S. aureus IHMA 1742231, MRSA / VSSA) turn out when Cc1[nH]c(C(=O)Nc2nc3ccc(C(=O)O)cc3s2)c(Cl)c1Cl [ULD1] was run?
A: The MIC was 0.5 µg/mL (≈ 1.35 µM).

Q: And the MIC ([1]; MRSA, S. aureus IHMA 1766357, MRSA / VSSA)?
A: Its MIC is 0.25 µg/mL (≈ 0.675 µM).

Q: And the MIC ([1]; MSSA / NRS 12 / VISA, S. aureus IHMA 1308244, NRS12, MSSA / VISA)?
A: Its MIC is 1 µg/mL (≈ 2.7 µM).

Q: What about the MIC ([1]; MSSA / NRS 13 / VISA, S. aureus IHMA 1308245, NRS13, MSSA / VISA) of the same compound?
A: Its MIC is 1 µg/mL (≈ 2.7 µM).

Q: And the MIC ([1]; MSSA / NRS 14 / VISA, S. aureus IHMA 1308246, NRS14, MSSA / VISA)?
A: Its MIC is 1 µg/mL (≈ 2.7 µM).

Q: What about the MIC ([1]; MSSA / NRS 17 / VISA, S. aureus IHMA 1308247, NRS17, MSSA / VISA) of the same compound?
A: The MIC was 1 µg/mL (≈ 2.7 µM).

Q: And the MIC ([1]; MSSA / NRS 28 / VISA, S. aureus IHMA 1308249, NRS28, MSSA / VISA)?
A: The MIC was 1 µg/mL (≈ 2.7 µM).

Q: And the MIC ([1]; MSSA / NRS 52, S. aureus IHMA 1308252, NRS52, MSSA / VSSA* (*Expected VAN intermediate, confirmed VAN susceptible twice), test date 2018-11-07)?
A: The MIC was 0.12 µg/mL (≈ 0.324 µM).

Q: And the MIC ([1]; MSSA / USA100 / VRSA, S. aureus IHMA 672236, VRS6, MSSA / VRSA, USA100)?
A: The MIC was 0.25 µg/mL (≈ 0.675 µM).

Q: What about the MIC ([1]; MSSA, S. aureus IHMA 1563826, MSSA / VSSA) of the same compound?
A: The MIC was 0.5 µg/mL (≈ 1.35 µM).

Q: And the MIC ([1]; MSSA, S. aureus IHMA 1565492, MSSA / VSSA)?
A: The MIC was 0.25 µg/mL (≈ 0.675 µM).

Q: What about the MIC ([1]; MSSA, S. aureus IHMA 1569499, MSSA / VSSA) of the same compound?
A: The MIC was 1 µg/mL (≈ 2.7 µM).

Q: And the MIC ([1]; MSSA, S. aureus IHMA 1569754, MSSA / VSSA)?
A: The MIC was 0.25 µg/mL (≈ 0.675 µM).

Q: And the MIC ([1]; MSSA, S. aureus IHMA 1574202, MSSA / VSSA)?
A: Its MIC is 0.5 µg/mL (≈ 1.35 µM).

Q: And the MIC ([1]; MSSA, S. aureus IHMA 1575652, MSSA / VSSA)?
A: Its MIC is 0.5 µg/mL (≈ 1.35 µM).

Q: What about the MIC ([1]; MSSA, S. aureus IHMA 1575779, MSSA / VSSA) of the same compound?
A: Its MIC is 1 µg/mL (≈ 2.7 µM).

Q: What about the MIC ([1]; MSSA, S. aureus IHMA 1576329, MSSA / VSSA) of the same compound?
A: The MIC was 1 µg/mL (≈ 2.7 µM).

Q: What about the MIC ([1]; MSSA, S. aureus IHMA 1577800, MSSA / VSSA) of the same compound?
A: Its MIC is 0.5 µg/mL (≈ 1.35 µM).

Q: And the MIC ([1]; MSSA, S. aureus IHMA 1578560, MSSA / VSSA)?
A: The MIC was 1 µg/mL (≈ 2.7 µM).

Q: What about the MIC ([1]; MSSA, S. aureus IHMA 1580233, MSSA / VSSA) of the same compound?
A: The MIC was 0.25 µg/mL (≈ 0.675 µM).

Q: And the MIC ([1]; MSSA, S. aureus IHMA 1580925, MSSA / VSSA)?
A: The MIC was 0.25 µg/mL (≈ 0.675 µM).

Q: What about the MIC ([1]; MSSA, S. aureus IHMA 1580955, MSSA / VSSA) of the same compound?
A: The MIC was 1 µg/mL (≈ 2.7 µM).

Q: What about the MIC ([1]; MSSA, S. aureus IHMA 1582586, MSSA / VSSA) of the same compound?
A: The MIC was 1 µg/mL (≈ 2.7 µM).

Q: What about the MIC ([1]; MSSA, S. aureus IHMA 1582691, MSSA / VSSA) of the same compound?
A: The MIC was 0.25 µg/mL (≈ 0.675 µM).

Q: And the MIC ([1]; MSSA, S. aureus IHMA 1584230, MSSA / VSSA)?
A: Its MIC is 1 µg/mL (≈ 2.7 µM).

Q: What about the MIC ([1]; MSSA, S. aureus IHMA 1587279, MSSA / VSSA) of the same compound?
A: The MIC was 0.5 µg/mL (≈ 1.35 µM).

Q: What about the MIC ([1]; MSSA, S. aureus IHMA 1591459, MSSA / VSSA) of the same compound?
A: Its MIC is 0.5 µg/mL (≈ 1.35 µM).

Q: And the MIC ([1]; MSSA, S. aureus IHMA 1592749, MSSA / VSSA)?
A: The MIC was 1 µg/mL (≈ 2.7 µM).

Q: And the MIC ([1]; MSSA, S. aureus IHMA 1592751, MSSA / VSSA)?
A: Its MIC is 0.5 µg/mL (≈ 1.35 µM).

Q: And the MIC ([1]; MSSA, S. aureus IHMA 1594297, MSSA / VSSA)?
A: The MIC was 1 µg/mL (≈ 2.7 µM).

Q: And the MIC ([1]; MSSA, S. aureus IHMA 1597120, MSSA / VSSA)?
A: Its MIC is 1 µg/mL (≈ 2.7 µM).

Q: What about the MIC ([1]; MSSA, S. aureus IHMA 1597125, MSSA / VSSA) of the same compound?
A: The MIC was 1 µg/mL (≈ 2.7 µM).

Q: What about the MIC ([1]; MSSA, S. aureus IHMA 1599157, MSSA / VSSA) of the same compound?
A: The MIC was 1 µg/mL (≈ 2.7 µM).

Q: And the MIC ([1]; MSSA, S. aureus IHMA 1599506, MSSA / VSSA)?
A: Its MIC is 0.12 µg/mL (≈ 0.324 µM).

Q: And the MIC ([1]; MSSA, S. aureus IHMA 1602078, MSSA / VSSA)?
A: The MIC was 0.5 µg/mL (≈ 1.35 µM).

Q: What about the MIC ([1]; MSSA, S. aureus IHMA 1604586, MSSA / VSSA) of the same compound?
A: The MIC was 0.5 µg/mL (≈ 1.35 µM).

Q: And the MIC ([1]; MSSA, S. aureus IHMA 1604609, MSSA / VSSA)?
A: Its MIC is 0.5 µg/mL (≈ 1.35 µM).

Q: And the MIC ([1]; MSSA, S. aureus IHMA 1609919, MSSA / VSSA)?
A: The MIC was 0.5 µg/mL (≈ 1.35 µM).

Q: And the MIC ([1]; MSSA, S. aureus IHMA 1622864, MSSA / VSSA)?
A: The MIC was 0.5 µg/mL (≈ 1.35 µM).

Q: What about the MIC ([1]; MSSA, S. aureus IHMA 1626392, MSSA / VSSA) of the same compound?
A: Its MIC is 1 µg/mL (≈ 2.7 µM).

Q: What about the MIC ([1]; MSSA, S. aureus IHMA 1713793, MSSA / VSSA) of the same compound?
A: Its MIC is 1 µg/mL (≈ 2.7 µM).

Q: What about the Resistant colony number ([2]; VISA GyrB I175T, 4xMIC) of the same compound?
A: Its Resistant colony number is “lawn”.

Q: What about the Resistant colony number ([2]; VISA GyrB I175T, 8xMIC) of the same compound?
A: The Resistant colony number was “lawn”.

Q: And the Resistant colony number ([2]; VISA GyrB R144I, 4xMIC)?
A: The Resistant colony number was “lawn”.

Q: What about the Frequency-of-Resistance ([2]; VISA GyrB R144I, 12xMIC) of the same compound?
A: Its Frequency-of-Resistance is 4.57E-08.

Q: What about the Resistant colony number ([2]; VISA GyrB R144I, 12xMIC) of the same compound?
A: The Resistant colony number was 1288.

Q: What about the Frequency-of-Resistance ([2]; VISA GyrB R144I, 16xMIC) of the same compound?
A: Its Frequency-of-Resistance is 1.61E-08.

Q: And the Resistant colony number ([2]; VISA GyrB R144I, 16xMIC)?
A: The Resistant colony number was 454.

Q: What about the “decrease in susceptibility compared with wild-type strain” value ([3]; 9 independently evolved novobiocin-resistant isolates) of the same compound?
A: Its value is “up to 6 fold”.

Q: And the MIC ([3]; WT S. aureus VISA ATCC 700699, read-out: MIC)?
A: The MIC was 0.04 µg/mL.

Q: And the MIC ([3]; novobiocin-adapted Evolved 1)?
A: Its MIC is 0.016 µg/mL.

Q: And the MIC ([3]; novobiocin-adapted Evolved 2)?
A: The MIC was 0.125 µg/mL.

Q: What about the MIC ([3]; novobiocin-adapted Evolved 3) of the same compound?
A: Its MIC is 0.016 µg/mL.

Q: What about the MIC ([3]; novobiocin-adapted Evolved 4) of the same compound?
A: The MIC was 0.25 µg/mL.

Q: And the MIC ([3]; novobiocin-adapted Evolved 5)?
A: The MIC was 0.063 µg/mL.

Q: What about the MIC ([3]; novobiocin-adapted Evolved 6) of the same compound?
A: The MIC was 0.063 µg/mL.

Q: What about the MIC ([3]; novobiocin-adapted Evolved 7) of the same compound?
A: The MIC was 0.125 µg/mL.

Q: And the MIC ([3]; novobiocin-adapted Evolved 8)?
A: Its MIC is 0.125 µg/mL.

Q: And the MIC ([3]; novobiocin-adapted Evolved 9)?
A: The MIC was 0.016 µg/mL.
